From ChEMBL document CHEMBL2040799, “Exploring the Requirements for the Hydrophobic Scaffold and Polar Amine in inhibitors of M2 from Influenza A Virus” (ACS Med Chem Lett, 2011)
pIC50: −log10 of the molar value.

How the values were obtained:
Oocyte = assay: Inhibition of Influenza A Virus M2 proton channel expressed in Xenopus laevis oocytes at 100 uM after 2 mins by two-electrode […] assay; type: cell-based
[1] = Inhibition of Influenza A Virus M2 proton channel expressed in Xenopus laevis oocytes after 2 mins by two-electrode […] assay; type: cell-based; settings: Oocyte

Row | Compound | inhibition (Oocyte) [%] | pIC50 [1]
1 | NC12CC3CC(C1)CC(O)(C3)C2 | 5 | 
2 | OC1CC2C3CCC(C3)C2C1O (stereo not given) | 50 | 
3 | NN1CCC2(CCCCC2)CC1 | 96 | 5.15
4 | C1NC2CC3CC1CC(C3)C2 | 84 | 
5 | O=C1CC2(CCCCC2)CC(=O)N1 | 35 | 
6 | NC1C2CC3CC(C2)CC1C3 (stereo not given) | 92 | 
7 | O=C1C2CC3CC(C2)CC1C3 | 69 | 4.54
8 | N=C(NO)C12CC3CC(CC(C3)C1)C2 | 72 | 
9 | NC12CC3CC(C1)CC(CO)(C3)O2 | 13 | 
10 | OC1C2C3CC4C1C1C2CC3C41 (stereo not given) | 57 | 
11 | N=C(N)NCC12CC3CCC(CC(C3)C1)C2 | 90 | 
12 | C1CC2CCC1CNC2 | 75 | 
13 | C1CCC2(CC1)CCNCC2 | 95 | 6.00
14 | N=C(N)NC(=N)NC12CC3CC(CC(C3)C1)C2 | 70 | 
15 | NC12CC3CCC(CC(C3)C1)C2 | 81 | 4.62
16 | NN1C(=O)CC2(CCCCC2)CC1=O | 29 | 
17 | O=S(=O)(O)C12CC3CC(CC(C3)C1)C2 | 3 | 
18 | NNC1CCC2(CCCCC2)CC1 | 79 | 4.51
19 | NC(CO)C12CC3CC(CC(C3)C1)C2 (stereo not given) | 90 | 4.80
20 | NC1CC2CC1C1CCCC21 (stereo not given) | 94 | 5.05

Row | Compound | inhibition (Oocyte) [%] | pIC50 [1]
21 | OC1CCC(C2CC3CCC2C3)CC1O (stereo not given) | 80 | 
22 | C1CC2CC1C1CNCC21 (stereo not given) | 74 | 
23 | OC1C2C3CC4C2C(O)C2C1C3C42 (stereo not given) | 76 | 
24 | NC1C2C3CC4C1C1C2CC3C41 (stereo not given) | 96 | 5.10
25 | C1CC2CC1C1CNC21 (stereo not given) | 45 | 
26 | CC1(C)C(N)C1(C)C | 28 | 
27 | NC12CC3CC(CC(C3)C1)C2 | 91 | 
28 | CC1(O)C2CC3CC(C2)CC1C3 (stereo not given) | 86 | 4.85
29 | NC1Cc2ccccc2C1 | 6 | 
30 | NC12CCC3CC(CC(C3)C1)C2 | 92 | 4.54
31 | OC12CC3CC(CC(C3)C1)C2 | 85 | 4.70
32 | NC1C2C3CC4C2C(O)C2C1C3C42 (stereo not given) | 86 | 4.62
33 | CC(C)(C)c1ccc(CN)cc1 | 40 | 
34 | CC(C)(C)CC(C)(C)N | 87 | 4.68
35 | NC(=O)C12CC3CC(CC(C3)C1)C2 | 75 | 
36 | N=C(N)C12CC3CC(CC(C3)C1)C2 | 95 | 5.40
37 | CC12CC3(O)CC1(C)CC3(O)C2 | 40 | 
38 | N=C(N)NC12CC3CC(CC(C3)C1)C2 | 97 | 4.82
39 | NOC12CC3CC(CC(C3)C1)C2 | 87 | 
40 | NC1CCC2(CCCCC2)CC1 | 89 | 
